From patent US20240342292A1, “Compounds for the Degradation of EGFR Kinase” (BeiGene Switzerland GmbH, priority 2021, published 2024)

Experiments:
L858R/T790M/C797S EGFR = target: T1, L858R/T790M/C797S EGFR (Homo sapiens, UniProt P00533, C797S/L858R/T790M); assay: EGFR degradation HTRF assay in H1975-clone #25 (LTC) cells; assay type: cell-based; settings: 16h treatment; for DC50: HTRF; for Dmax: NCI-H1975, H1975 # 25-LTC (L858R/T790M/C797S)
T1 construct: expressed in transfected cells; host or cells: H1975 clone #25 (lentiviral over-expression, endogenous EGFR knocked out by sgRNA)
Outline: (§1)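 H1975 clones with endogenous EGFR knocked out and lentivirally expressed mutant EGFR treated 16 h at 37 °C with compounds, 8 doses from 10 uM, 5-fold dilutions, 0.2% DMSO. Lysates read by HTRF (665/620 nm) overnight; DC50 from four-parameter fit.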

Del19/T790M/C797S EGFR = assay: EGFR degradation HTRF assay in H1975-clone #28 (DTC) cells; assay type: cell-based; settings: H1975 # 28 DTC (Del19/T790M/C797S), 16h treatment; for DC50: HTRF; for Dmax (%): maximum percentage of degradation
Outline: as §1

[1] = H1975 # 25-LTC (L858R/T790M/C797S)
[2] = maximum percentage of degradation

Cc1cc2cc(n1)-c1cnn(C)c1OCCC[C@@H](C)CN1/C(=N/C2=O)Nc2ccc(N3CCN(CCN(C)c4cc(F)c([C@H]5CCC(=O)NC5=O)c(F)c4)CC3)cc21 [Example 407, (R)-3-(2,6-difluoro-4-(methyl(2-(4-((R,E)-1^1,2^6,7-trimethyl-3-oxo-5^2,5^3-dihydro-1^1H,5^1H-11-oxa-4-aza-5(2,1)-benzo[d]imidazola-2(2,4)-pyridina-1(4,5)-pyrazolacycloundecaphane-5^6-yl)piperazin-1-yl)ethyl)amino)phenyl)piperidine-2,6-dione]
DC50 (L858R/T790M/C797S EGFR; [1]): 2290 pM | Dmax (L858R/T790M/C797S EGFR; [2]): 87.9% | DC50 (Del19/T790M/C797S EGFR): 2090 pM | Dmax (%) (Del19/T790M/C797S EGFR): 78.49%

Cc1cc2cc(n1)-c1cnn(C)c1OCCC[C@@H](C)CN1/C(=N/C2=O)Nc2ccc(C(=O)N(C)C[C@H]3CCCN(CCc4cc(F)c([C@H]5CCC(=O)NC5=O)c(F)c4)C3)cc21 [Example 276, (R,E)-N—(((S)-1-(4-((R)-2,6-dioxopiperidin-3-yl)-3,5-difluorophenethyl)piperidin-3-yl)methyl)-N,1^1, 2^6,7-tetramethyl-3-oxo-5^2,5^3-dihydro-1^1H,5^1H-11-oxa-4-aza-5(2,1)-benzo[d]imidazola-2(2,4)-pyridina-1(4,5)-pyrazolacycloundecaphane-5^6-carboxamide]
DC50 (L858R/T790M/C797S EGFR; [1]): 592 pM | Dmax (L858R/T790M/C797S EGFR; [2]): 88% | DC50 (Del19/T790M/C797S EGFR): 1740 pM | Dmax (%) (Del19/T790M/C797S EGFR): 71.19%

Cc1cc2cc(n1)-c1cnn(C)c1OCCC[C@@H](C)CN1/C(=N/C2=O)Nc2ccc(C3CCN(C4CCN(c5cc(F)c([C@H]6CCC(=O)NC6=O)c(F)c5)CC4)CC3)cc21 [Example 332, (R)-3-(2,6-difluoro-4-(4-((R,E)-1^1,2^6,7-trimethyl-3-oxo-5^2,5^3-dihydro-1^1H,5^1H-11-oxa-4-aza-5(2,1)-benzo[d]imidazola-2(2,4)-pyridina-1(4,5)-pyrazolacycloundecaphane-5^6-yl)-[1,4′-bipiperidin]-1′-yl)phenyl)piperidine-2,6-dione]
DC50 (L858R/T790M/C797S EGFR; [1]): 995 pM | Dmax (L858R/T790M/C797S EGFR; [2]): 91.2% | DC50 (Del19/T790M/C797S EGFR): 1310 pM | Dmax (%) (Del19/T790M/C797S EGFR): 86.39%

(R)-3-(2,6-difluoro-4-(3-(7-(((R,E)-1^1,2^6,7-trimethyl-3-oxo-5^2,5^3-dihydro-1^1H,5^1H-11-oxa-4-aza-5(2,1)-benzo[d]imidazola-2(2,4)-pyridina-1(4,5)-pyrazolacycloundecaphane-5^6-yl)methyl)-2,7-diazaspiro[3.5]nonane-2-carbonyl)azetidin-1-yl)phenyl)piperidine-2,6-dione [Example 25]
DC50 (L858R/T790M/C797S EGFR; [1]): 400 pM | Dmax (%) (L858R/T790M/C797S EGFR; H1975 # 25-LTC (L858R/T790M/C797S), maximum percentage of degradation): 93.6% | DC50 (Del19/T790M/C797S EGFR): 600 pM | Dmax (%) (Del19/T790M/C797S EGFR): 86.3%

Cc1cc2cc(n1)-c1cnn(C)c1OCCC[C@@H](C)CN1/C(=N/C2=O)Nc2ccc(C3CCN(C(=O)[C@H]4CN(c5cc(F)c([C@H]6CCC(=O)NC6=O)c(F)c5)CC4(C)C)CC3)cc21 [Example 327, (R)-3-(4-((R)-3,3-dimethyl-4-(4-((R,E)-1^1,2^6,7-trimethyl-3-oxo-5^2,53-dihydro-1^1H,5^1H-11-oxa-4-aza-5(2,1)-benzo[d]imidazola-2(2,4)-pyridina-1(4,5)-pyrazolacycloundecaphane-5^6-yl)piperidine-1-carbonyl)pyrrolidin-1-yl)-2,6-difluorophenyl)piperidine-2,6-dione]
DC50 (L858R/T790M/C797S EGFR; [1]): 3170 pM | Dmax (L858R/T790M/C797S EGFR; [2]): 83.7% | DC50 (Del19/T790M/C797S EGFR): 1090 pM | Dmax (%) (Del19/T790M/C797S EGFR): 74.51%

Cc1cc2cc(n1)-c1cnn(C)c1OCCC[C@@H](C)CN1/C(=N/C2=O)Nc2ccc(C(=O)N3CCN(C4CCN(c5cc(F)c([C@H]6CCC(=O)NC6=O)c(F)c5)CC4)CC3)cc21 [Example 303, (R)-3-(2,6-difluoro-4-(4-(4-((R,E)-1^1,2^6,7-trimethyl-3-oxo-5^2,5^3-dihydro-1^1H,5^1H-11-oxa-4-aza-5(2,1)-benzo[d]imidazola-2(2,4)-pyridina-1(4,5)-pyrazolacycloundecaphane-5^6-carbonyl)piperazin-1-yl)piperidin-1-yl)phenyl)piperidine-2,6-dione]
DC50 (L858R/T790M/C797S EGFR; [1]): 582 pM | Dmax (L858R/T790M/C797S EGFR; [2]): 80.9% | DC50 (Del19/T790M/C797S EGFR): 246 pM | Dmax (%) (Del19/T790M/C797S EGFR): 63.64%

Cc1cc2cc(n1)-c1cnn(C)c1OCCC[C@@H](C)CN1/C(=N/C2=O)Nc2ccc(N3CCC(C(=O)N4CCN(c5cc(F)c([C@H]6CCC(=O)NC6=O)c(F)c5)CC4)CC3)cc21 [Example 333, (R)-3-(2,6-difluoro-4-(4-(1-((R,E)-1^1,2^6,7-trimethyl-3-oxo-5^2,5^3-dihydro-1^1H,5^1H-11-oxa-4-aza-5(2,1)-benzo[d]imidazola-2(2,4)-pyridina-1(4,5)-pyrazolacycloundecaphane-5^6-yl)piperidine-4-carbonyl)piperazin-1-yl)phenyl)piperidine-2,6-dione]
DC50 (L858R/T790M/C797S EGFR; [1]): 687 pM | Dmax (L858R/T790M/C797S EGFR; [2]): 86.1% | DC50 (Del19/T790M/C797S EGFR): 684 pM | Dmax (%) (Del19/T790M/C797S EGFR): 75.17%

Cc1cc2cc(n1)-c1cnn(C)c1OCCC[C@@H](C)CN1/C(=N/C2=O)Nc2ccc(N3CCN(CC4CN(c5cc(F)c([C@H]6CCC(=O)NC6=O)c(F)c5)C4)[C@H](CO)C3)cc21 [Example 451, (R)-3-(2,6-difluoro-4-(3-(((S)-2-(hydroxymethyl)-4-((R,E)-1^1,2^6,7-trimethyl-3-oxo-5^2,5^3-dihydro-1^1H,5^1H-11-oxa-4-aza-5(2,1)-benzo[d]imidazola-2(2,4)-pyridina-1(4,5)-pyrazolacycloundecaphane-5^6-yl)piperazin-1-yl)methyl)azetidin-1-yl)phenyl)piperidine-2,6-dione]
DC50 (L858R/T790M/C797S EGFR; [1]): 881 pM | Dmax (L858R/T790M/C797S EGFR; [2]): 90.9% | DC50 (Del19/T790M/C797S EGFR): 606 pM | Dmax (%) (Del19/T790M/C797S EGFR): 81.53%

Cc1cc2cc(n1)-c1cnn(C)c1OCC[C@H]1C[C@@H]1CN1/C(=N/C2=O)Nc2ccc(N3CCN(C4CCN(c5cc(F)c([C@H]6CCC(=O)NC6=O)c(F)c5)CC4)CC3)cc21 [Example 391, (R)-3-(4-(4-(4-((7^1S,7^2R,E)-1^1,2^6-dimethyl-3-oxo-5^2,5^3-dihydro-1^1H,5^1H-10-oxa-4-aza-5(2,1)-benzo[d]imidazola-2(2,4)-pyridina-1(4,5)-pyrazola-7(1,2)-cyclopropanacyclodecaphane-5^6-yl)piperazin-1-yl)piperidin-1-yl)-2,6-difluorophenyl)piperidine-2,6-dione]
DC50 (L858R/T790M/C797S EGFR; [1]): 1560 pM | Dmax (L858R/T790M/C797S EGFR; [2]): 87.5% | DC50 (Del19/T790M/C797S EGFR): 1540 pM | Dmax (%) (Del19/T790M/C797S EGFR): 85.34%

Cc1cc2cc(n1)-c1cnn(C)c1OCCC[C@@H](C)CN1/C(=N/C2=O)Nc2ccc(CN3CCC4(CC3)CCN(C(=O)C3CN(c5cc(F)c([C@H]6CCC(=O)NC6=O)c(F)c5)C3)CC4)cc21 [Example 12, (R)-3-(2,6-difluoro-4-(3-(9-(((R,E)-1^1,2^6,7-trimethyl-3-oxo-5^2,53-dihydro-1^1H,5^1H-11-oxa-4-aza-5(2,1)-benzo[d]imidazola-2(2,4)-pyridina-1(4,5)-pyrazolacycloundecaphane-5^6-yl)methyl)-3,9-diazaspiro[5.5]undecane-3-carbonyl)azetidin-1-yl)phenyl)piperidine-2,6-dione]
DC50 (L858R/T790M/C797S EGFR; [1]): 600 pM | Dmax (L858R/T790M/C797S EGFR; [2]): 94.3% | DC50 (Del19/T790M/C797S EGFR): 500 pM | Dmax (%) (Del19/T790M/C797S EGFR): 86.7%

Cc1cc2cc(n1)-c1cnn(C)c1OCCC[C@@H](C)CN1/C(=N/C2=O)Nc2ccc(N3CC4(CCN(CC5CN(c6cc(F)c([C@H]7CCC(=O)NC7=O)c(F)c6)C5)CC4)CC3=O)cc21 [Example 406, (R)-3-(2,6-difluoro-4-(3-((3-oxo-2-((R,E)-1^1,2^6,7-trimethyl-3-oxo-5^2,5^3-dihydro-1^1H,5^1H-11-oxa-4-aza-5(2,1)-benzo[d]imidazola-2(2,4)-pyridina-1(4,5)-pyrazolacycloundecaphane-5^6-yl)-2,8-diazaspiro[4.5]decan-8-yl)methyl)azetidin-1-yl)phenyl)piperidine-2,6-dione]
DC50 (L858R/T790M/C797S EGFR; [1]): 1640 pM | Dmax (L858R/T790M/C797S EGFR; [2]): 89.6% | DC50 (Del19/T790M/C797S EGFR): 1090 pM | Dmax (%) (Del19/T790M/C797S EGFR): 85.15%

Cc1cc2cc(n1)-c1cnn(C)c1OCCC[C@@H](C)CN1/C(=N/C2=O)Nc2ccc(C(=O)N(C)[C@H]3CCN(C4CN(c5cc(F)c([C@H]6CCC(=O)NC6=O)c(F)c5)C4)CC3(F)F)cc21 [Example 359, (R,E)-N—((S)-1-(1-(4-((R)-2,6-dioxopiperidin-3-yl)-3,5-difluorophenyl)azetidin-3-yl)-3,3-difluoropiperidin-4-yl)-N,1^1,2^6,7-tetramethyl-3-oxo-5^2,5^3-dihydro-1^1H,5^1H-11-oxa-4-aza-5(2,1)-benzo[d]imidazola-2(2,4)-pyridina-1(4,5)-pyrazolacycloundecaphane-5^6-carboxamide]
DC50 (L858R/T790M/C797S EGFR; [1]): 841 pM | Dmax (L858R/T790M/C797S EGFR; [2]): 87.1% | DC50 (Del19/T790M/C797S EGFR): 751 pM | Dmax (%) (Del19/T790M/C797S EGFR): 83.57%

Cc1cc2cc(n1)-c1cnn(C)c1OCCC[C@@H](C)CN1/C(=N/C2=O)Nc2ccc(C(=O)N(C)CCCCc3cc(F)c([C@H]4CCC(=O)NC4=O)c(F)c3)cc21 [Example 339, (R,E)-N-(4-(4-((R)-2,6-dioxopiperidin-3-yl)-3,5-difluorophenyl)butyl)-N,1^1,2^6,7-tetramethyl-3-oxo-5^2,5^3-dihydro-1^1H,5^1H-11-oxa-4-aza-5(2,1)-benzo[d]imidazola-2(2,4)-pyridina-1(4,5)-pyrazolacycloundecaphane-5^6-carboxamide]
DC50 (L858R/T790M/C797S EGFR; [1]): 865 pM | Dmax (L858R/T790M/C797S EGFR; [2]): 80.3% | DC50 (Del19/T790M/C797S EGFR): 671 pM | Dmax (%) (Del19/T790M/C797S EGFR): 70.76%
